Structures are written as SMILES. Where two headings read alike, the source gives them in different places.

The subject of one assay is PSA. The experiment in a line: Screening SSIA by homogeneous PSA immunoassay (anti-PSA-AK1 + anti-PSA-HRP). It is filed as biochemical, human. How it is done: This example presents one method used for testing of candidate compounds for functionality as SSIA in assays of the present disclosure. Testing was conducted in a model screening immunoassay of the protein PSA. Tests were run using a 96-well microtiter plate format. A solution containing 30 μL of mouse anti-PSA-AK1 (66 ng), 30 μL of mouse anti-PSA-HRP conjugate (7.8 ng), 36 μL of human female serum, and 24 μL of PSA calibrator were pipetted into each well. The plate was incubated at 37° C. for 10 minutes. A 5 μL aliquot of the test compound (various concentrations) was added to each well. Chemiluminescence was triggered by the addition of 100 μL of a solution of a trigger solution whose composition is listed below. The chemiluminescent flash was integrated for 5 seconds after the addition of the trigger solution using a Luminoskan Asent® plate luminometer, (Thermo Fischer Scientific, Inc., Waltham, Mass.).
It is desirable that the improvement factor be at least 2 (S5/S0≧ about 20-30) and more desirable that improvement factor be at least 5 (S5/S0≧ about 50), yet more desirable that S5/S0 be ≧100 in the present screen.

Another assay deals with biotinylated HRP. The experiment in a line: Model system for selection of SSIA (AK1/streptavidin BSA microparticles + biotinylated HRP). The format is biochemical, horseradish. To be noted: SSIA 100 μM final. Put shortly: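 Streptavidin/AK1/biotin-BSA M280 microparticles mixed with candidate SSIA (100 μM final) and Btn-HRP at 0, 1, 10, 100 or 250 ng/mL, with unlabeled HRP to 500 ng/mL total HRP. After 30 min at 37° C, trigger solution was added and light intensity recorded on a modified DxI analyzer.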

In another assay the test system is Rabbit anti cAMP. An excerpt:
There are provided homogeneous immunoassays of an analyte utilizing a chemiluminescent-labeled capture antibody in combination with labeled analyte in a competitive immunoassay reaction. The example analyte cyclic-AMP (“cAMP”) is conjugated with HRP to provide a cAMP-HRP reagent, which competes for analyte cAMP at the capture antibody (“Capture Ab”) which is conjugated with AK5 to form a capture antibody-AK5 complex. […] Analyte (cAMP) which is not conjugated with HRP competes for the […], and upon addition of trigger solution the resulting capture antibody-AK5-cAMP complex provides no chemiluminescence (i.e., “No Light”). Accordingly, analyte cAMP competes for capture antibody-AK5 complex and thereby suppresses signal due to the capture antibody-AK1-cAMP-HRP complex.
Rabbit anti cAMP (IMMUNOTECH, Marseille) 0.1 mg (20.3 uL from 4.93 mg/mL stock) was added to 162 uL of 0.1 M sodium borate pH 8.25 buffer in 1.7 mL centrifuge tube. 17.6 ug of AK5 (17.6 ul from 1 mg/mL stock of DMF) was added. After quick vortex mixing tube was placed on a rotating shaker for 1 hour at room temperature. Reaction was quenched by adding 1.2 uL of L-lysine from 3 mg/mL stock. Reaction mixture was diluted (1:1) in 0.4% BSA and PBS and stored at 4 C. cAMP-HRP was prepared according to the literature. […] A 30 nM stock of cAMP was prepared in PBS and further diluted in PBS to make sample calibrators for the assay.
The competitive immunoassay protocol was as follows. AK5 labeled monoclonal Rabbit anti cAMP (0.275 ug/mL) (3 uL), HRP labeled cAMP (0.09375 ug/mL) (3 ul) and cAMP calibrators (4 ul) were added into a white polystyrene 384 low volume plate. Conjugate solutions were 0.2% in BSA. After incubation of 30 minutes at room temperature, 1 ul of 2-aminophenol (0.6875 mM) was added followed by a trigger solution (10 ul). The trigger solution contained 25 mM Tris pH 8, 8 mM p-hydroxycinnamic acid, 1 mM EDTA, 0.2% Tween-20 and 0.1 M ureaperoxide. Light intensity was measured (Spectromax) for one second immediately upon injection of trigger. Reactants were not exposed to light during incubation and were not shaken.

Where [1] appears, read: test compound final conc. […] ([…]), S5 = 129 ng PSA/mL vs zero PSA.
[2] abbreviates: test compound final conc. 0.244 mM (244 uM).

As for `N[C@@H](CCC(=O)N[C@@H](CS)C(=O)NCC(=O)O)C(=O)O` [Glutathione], in the assay on PSA (setting [1]), the S5/S0 came to 77. The “light intensity, BTN-HRP0” value with biotinylated HRP (Btn-HRP 0 ng/mL, total HRP 500 ng/mL) is reported as 26,977. Also, the S1/S0 with biotinylated HRP (Btn-HRP 1 ng/mL vs 0) is listed as 2.1. Also, the “light intensity, BTN-HRP1” value in the assay on biotinylated HRP (Btn-HRP 1 ng/mL, total HRP 500 ng/mL) is reported as 55,719. Also, the S2/S0 in the assay on biotinylated HRP (Btn-HRP 10 ng/mL vs 0) is given as 92. Besides, the “light intensity, BTN-HRP10” value in the assay with biotinylated HRP (Btn-HRP 10 ng/mL, total HRP 500 ng/mL) is 2,480,764. Also, the S3/S0 with biotinylated HRP (Btn-HRP 100 ng/mL vs 0) was 323.7. In addition, in the assay with biotinylated HRP (Btn-HRP 100 ng/mL, total HRP 500 ng/mL), the “light intensity, BTN-HRP100” value is reported as 8,733,068. The S4/S0 in the assay with biotinylated HRP (Btn-HRP 250 ng/mL vs 0) stood at 369.4. Besides, the “light intensity, BTN-HRP250” value with biotinylated HRP (Btn-HRP 250 ng/mL, total HRP 500 ng/mL) was 9,965,235. Further, the “effectiveness as SSIA in the model system” value in the assay on biotinylated HRP is recorded as “insuffient effectiveness”. `O=c1cc(O)c2ccccc2o1`: the S5/S0 with PSA (setting [1]) is 17. For the compound `Nc1ccccc1S`, in the assay with PSA (setting [1]), the S5/S0 was 234. Same read-out and setting: the same measure for `O=c1c2ccccc2[nH]c2ccccc12`: 14; for `COC1=C(O)C(=O)O[C@@H]1[C@@H](O)CO`: 16; for `Cc1cc(CO)c(O)c(CO)c1`: 23. For the compound `O=C1O[C@H]([C@@H](O)CO)C([O-])=C1O.[Na+]` [ascorbate sodium salt (ascorbate anion), ascorbate sodium salt], the S5/S0 in the assay on PSA (setting [1]) turned out to be 495.

Take `Nc1ncccc1O`: the S5/S0 with PSA (setting [1]) is given as 32. With `c1ccc2c(c1)Cc1ccccc1N2`, the S5/S0 with PSA came out at 120. For `C=CCc1ccc(O)c(OC)c1`, the S5/S0 with PSA (setting [2]) was 30.

Consider `O=C1O[C@H]([C@@H](O)CO)C(O)=C1O` [drawing 89], for which the S5/S0 in the assay on PSA (setting [1]) is 423. Consider `Nc1cc2ccccc2cc1O`, for which the S5/S0 in the assay with PSA (setting [2]) was found to be 67. As to `c1ccc2c(c1)Cc1ccccc1O2`, the S5/S0 in the assay on PSA (setting [1]) is reported as 4. In the case of `Oc1cccnc1O`, the S5/S0 with PSA (setting [1]) was found to be 41. Take `OB(O)c1cc(Cl)ccc1O`: in the assay on PSA (setting [2]), the S5/S0 worked out at 22.

For the compound `Cc1cc(-c2cc(C)c(N)c(C)c2)cc(C)c1N` [TMB], the S5/S0 with PSA (test compound final conc. 0.061 mM (61 uM)) was found to be 20. On to `Nc1ccccc1B(O)O`, for which the S5/S0 in the assay on PSA (setting [1]) is 108. Regarding `Oc1cccc(O)c1O`, in the assay on PSA (setting [1]), the S5/S0 was 69. On to `O=c1c(O)c(-c2ccccc2)oc2ccc(O)cc12`, for which the S5/S0 in the assay with PSA (setting [1]) is listed as 9. Consider `c1ccc2c(c1)Nc1ccccc1O2` [drawing 87], for which, in the assay on PSA (setting [1]), the S5/S0 was determined as 605.

`O=C1C(O)=C(Cl)C(=O)C(O)=C1Cl`: the S5/S0 in the assay with PSA (test compound final conc. 0.031 mM) was found to be 7. With `O=C(O)C1c2ccccc2Oc2ccccc21`, the S5/S0 in the assay with PSA (setting [1]) amounted to 7. In the case of `COc1ccccc1O`, the S5/S0 with PSA (setting [1]) was found to be 13.

In the case of `COc1cc(C(C)(C)C)c(O)c(C(C)(C)C)c1`, in the assay with PSA (setting [1]), the S5/S0 was 19. As to `O=C(O)/C(O)=C(/O)C(=O)O`, the S5/S0 in the assay with PSA (setting [1]) was 30.

As to `CC1=C(O)C(=O)C(C)O1` (stereo not drawn), the S5/S0 in the assay with PSA (test compound final conc. 1.25 mM) was 237. As to `C[C@H]1OC(=O)C(O)=C1O`, in the assay on PSA (setting [1]), the S5/S0 was found to be 423. In the case of `O=c1ccc2cc(O)c(O)cc2o1`, the S5/S0 in the assay with PSA (setting [1]) is recorded as 105. By IC50 is commonly meant the concentration needed to halve the response being measured. Take `Nc1ncnc2c1ncn2[C@@H]1O[C@@H]2COP(=O)(O)O[C@H]2[C@H]1O` [cAMP, cyclic-AMP]: the “Average (light intensity)” value turned out to be 83377 in the assay on Rabbit anti cAMP (cAMP 0.412 nM); 31156 in the assay with Rabbit anti cAMP (cAMP 3.7 nM); 943 in the assay on Rabbit anti cAMP (cAMP 33.3 nM); 315 with Rabbit anti cAMP (cAMP 100 nM); 173 in the assay with Rabbit anti cAMP (cAMP 1000 nM); 167 in the assay on Rabbit anti cAMP (cAMP 10000 nM). Also, the “Signal Suppression” value with Rabbit anti cAMP (cAMP 0.412 nM) is 9%; in the assay with Rabbit anti cAMP (cAMP 3.7 nM), 66%; in the assay on Rabbit anti cAMP (cAMP 33.3 nM), 99%; in the assay with Rabbit anti cAMP (cAMP 100 nM) it was 100%; with Rabbit anti cAMP (cAMP 1000 nM) it was 100%; in the assay with Rabbit anti cAMP (cAMP 10000 nM), 100%. The IC50 with Rabbit anti cAMP (read-out: IC50 for cAMP, competition with cAMP-HRP at AK5-labeled antibody, 2-aminophenol as SSIA) amounted to 2.6 nM. Consider `O=C1C=C(O)C(=O)C=C1O`, for which, in the assay with PSA (setting [2]), the S5/S0 amounted to 14. On to `O=c1c(O)c(-c2ccccc2)oc2cc(O)ccc12`, for which, in the assay on PSA (setting [1]), the S5/S0 is reported as 14. Turning to `Nc1ccc(C(=O)O)cc1O` [drawing 110], in the assay with PSA (setting [1]), the S5/S0 was 153.

Take `O=C(O)c1cc(O)c(O)c(O)c1`: the S5/S0 with PSA (setting [1]) is reported as 135. For the compound `Nc1ncc[nH]1`, the S5/S0 with PSA (test compound final conc. 24.4 mM) was 14. Regarding `NN` [NH2NH2], in the assay on PSA (setting [2]), the S5/S0 worked out at 15. Consider `Nc1ccccc1O` [drawing 97], for which, in the assay with PSA (setting [1]), the S5/S0 came to 649. Turning to `O=C1O[C@H]([C@H](O)CO)C(O)=C1O`, in the assay on PSA (setting [1]), the S5/S0 is recorded as 10.3. Regarding `O=S(=O)([O-])CCCN1c2ccccc2Sc2ccccc21.[Na+]`, the S5/S0 with PSA (setting [2]) is 50. As to `O=c1c(O)c(-c2ccccc2)oc2ccccc12`, the S5/S0 with PSA (setting [1]) was 13. With `Nc1cc(C[C@H](N)C(=O)O)ccc1O`, in the assay with PSA (setting [2]), the S5/S0 is reported as 448. As for `Nc1c(O)cc(S(=O)(=O)O)c2ccccc12`, the S5/S0 in the assay with PSA (setting [1]) is 65.

The values are drawn from patent US9029092B2, “Solution phase homogeneous assays” (Beckman Coulter, Inc., priority 2009, dated 2015).
